Patent publication US8192962B2, “Processes for detecting toxic substances” (Daikin Industries, Ltd., priority 2001, dated 2012)

Tested on: Energy system protein genes
Assay: DNA chip mRNA expression in yeast, energy system protein genes (Table 4)
Type: cell-based, Saccharomyces cerevisiae S288C
How it was run: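 Untreated cultures served as reference for log-phase S288C yeast given a growth-inhibiting, non-lethal toxicant dose for 2 h at 25° C. in YPD. Gene expression was measured on a whole-genome DNA chip from Cy3/Cy5-labeled cDNA.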

For `CCCCCCCCCCCCOS(=O)(=O)[O-].[Na+]` [(18), sodium lauryl sulfate], the “The level of expressed mRNA in the presence of chemical substance/The level of expressed mRNA in the absence of chemical substance” value (yeast gene YAL060W) was 1.8, the “The level of expressed mRNA in the presence of chemical substance/The level of expressed mRNA in the absence of chemical substance” value (yeast gene YBL058W, cells incubated two hours with the chemical substance) was 1.4 and the “The level of expressed mRNA in the presence of chemical substance/The level of expressed mRNA in the absence of chemical substance” value (yeast gene YBL099W, cells incubated two hours with the chemical substance) was 1.2. For the same compound, the “The level of expressed mRNA in the presence of chemical substance/The level of expressed mRNA in the absence of chemical substance” value (yeast gene YBR001C, cells incubated two hours with the chemical substance) was 1.6, the “The level of expressed mRNA in the presence of chemical substance/The level of expressed mRNA in the absence of chemical substance” value (yeast gene YBR185C, cells incubated two hours with the chemical substance) was 1.3 and the “The level of expressed mRNA in the presence of chemical substance/The level of expressed mRNA in the absence of chemical substance” value (yeast gene YBR221C, cells incubated two hours with the chemical substance) was 1.0. For the same compound, the “The level of expressed mRNA in the presence of chemical substance/The level of expressed mRNA in the absence of chemical substance” value (yeast gene YCL040W) was 1.7, the “The level of expressed mRNA in the presence of chemical substance/The level of expressed mRNA in the absence of chemical substance” value (yeast gene YCR012W) was 1.3 and the “The level of expressed mRNA in the presence of chemical substance/The level of expressed mRNA in the absence of chemical substance” value (yeast gene YCR046C, cells incubated two hours with the chemical substance) was 1.0. The “The level of expressed mRNA in the presence of chemical substance/The level of expressed mRNA in the absence of chemical substance” value (yeast gene YCR105W, cells incubated two hours with the chemical substance) was 1.1, the “The level of expressed mRNA in the presence of chemical substance/The level of expressed mRNA in the absence of chemical substance” value (yeast gene YDL021W) was 3.2 and the “The level of expressed mRNA in the presence of chemical substance/The level of expressed mRNA in the absence of chemical substance” value (yeast gene YDL067C, cells incubated two hours with the chemical substance) was 1.7. The “The level of expressed mRNA in the presence of chemical substance/The level of expressed mRNA in the absence of chemical substance” value (yeast gene YDL078C, cells incubated two hours with the chemical substance) was 2.0, the “The level of expressed mRNA in the presence of chemical substance/The level of expressed mRNA in the absence of chemical substance” value (yeast gene YDL107W, cells incubated two hours with the chemical substance) was 1.5 and the “The level of expressed mRNA in the presence of chemical substance/The level of expressed mRNA in the absence of chemical substance” value (yeast gene YDL174C) was 4.0. For the same compound, the “The level of expressed mRNA in the presence of chemical substance/The level of expressed mRNA in the absence of chemical substance” value (yeast gene YDL181W, cells incubated two hours with the chemical substance) was 1.4, the “The level of expressed mRNA in the presence of chemical substance/The level of expressed mRNA in the absence of chemical substance” value (yeast gene YDR001C) was 1.6 and the “The level of expressed mRNA in the presence of chemical substance/The level of expressed mRNA in the absence of chemical substance” value (yeast gene YDR050C, cells incubated two hours with the chemical substance) was 2.3. The “The level of expressed mRNA in the presence of chemical substance/The level of expressed mRNA in the absence of chemical substance” value (yeast gene YDR079W, cells incubated two hours with the chemical substance) was 1.3, the “The level of expressed mRNA in the presence of chemical substance/The level of expressed mRNA in the absence of chemical substance” value (yeast gene YDR178W, cells incubated two hours with the chemical substance) was 2.3 and the “The level of expressed mRNA in the presence of chemical substance/The level of expressed mRNA in the absence of chemical substance” value (yeast gene YDR231C) was 1.3. The “The level of expressed mRNA in the presence of chemical substance/The level of expressed mRNA in the absence of chemical substance” value (yeast gene YDR298C, cells incubated two hours with the chemical substance) was 1.6, the “The level of expressed mRNA in the presence of chemical substance/The level of expressed mRNA in the absence of chemical substance” value (yeast gene YDR377W, cells incubated two hours with the chemical substance) was 2.5 and the “The level of expressed mRNA in the presence of chemical substance/The level of expressed mRNA in the absence of chemical substance” value (yeast gene YDR529C, cells incubated two hours with the chemical substance) was 2.3. The “The level of expressed mRNA in the presence of chemical substance/The level of expressed mRNA in the absence of chemical substance” value (yeast gene YEL024W, cells incubated two hours with the chemical substance) was 1.5, the “The level of expressed mRNA in the presence of chemical substance/The level of expressed mRNA in the absence of chemical substance” value (yeast gene YEL039C, cells incubated two hours with the chemical substance) was 1.1 and the “The level of expressed mRNA in the presence of chemical substance/The level of expressed mRNA in the absence of chemical substance” value (yeast gene YER178W) was 0.9. For the same compound, the “The level of expressed mRNA in the presence of chemical substance/The level of expressed mRNA in the absence of chemical substance” value (yeast gene YFL057C) was 1.3, the “The level of expressed mRNA in the presence of chemical substance/The level of expressed mRNA in the absence of chemical substance” value (yeast gene YFR053C) was 2.2 and the “The level of expressed mRNA in the presence of chemical substance/The level of expressed mRNA in the absence of chemical substance” value (yeast gene YGL018C, cells incubated two hours with the chemical substance) was 1.0. For the same compound, the “The level of expressed mRNA in the presence of chemical substance/The level of expressed mRNA in the absence of chemical substance” value (yeast gene YGL062W) was 0.9, the “The level of expressed mRNA in the presence of chemical substance/The level of expressed mRNA in the absence of chemical substance” value (yeast gene YGL187C, cells incubated two hours with the chemical substance) was 2.4 and the “The level of expressed mRNA in the presence of chemical substance/The level of expressed mRNA in the absence of chemical substance” value (yeast gene YGL191W, cells incubated two hours with the chemical substance) was 1.7. For the same compound, the “The level of expressed mRNA in the presence of chemical substance/The level of expressed mRNA in the absence of chemical substance” value (yeast gene YGL205W, cells incubated two hours with the chemical substance) was 9.1, the “The level of expressed mRNA in the presence of chemical substance/The level of expressed mRNA in the absence of chemical substance” value (yeast gene YGL256W, cells incubated two hours with the chemical substance) was 0.8 and the “The level of expressed mRNA in the presence of chemical substance/The level of expressed mRNA in the absence of chemical substance” value (yeast gene YGR008C) was 4.2. For the same compound, the “The level of expressed mRNA in the presence of chemical substance/The level of expressed mRNA in the absence of chemical substance” value (yeast gene YGR043C) was 4.8, the “The level of expressed mRNA in the presence of chemical substance/The level of expressed mRNA in the absence of chemical substance” value (yeast gene YGR062C, cells incubated two hours with the chemical substance, 25° C., YPD medium) was 1.1 and the “The level of expressed mRNA in the presence of chemical substance/The level of expressed mRNA in the absence of chemical substance” value (yeast gene YGR087C, cells incubated two hours with the chemical substance) was 0.6. For the same compound, the “The level of expressed mRNA in the presence of chemical substance/The level of expressed mRNA in the absence of chemical substance” value (yeast gene YGR174C, cells incubated two hours with the chemical substance) was 2.3, the “The level of expressed mRNA in the presence of chemical substance/The level of expressed mRNA in the absence of chemical substance” value (yeast gene YGR192C) was 1.3 and the “The level of expressed mRNA in the presence of chemical substance/The level of expressed mRNA in the absence of chemical substance” value (yeast gene YGR244C) was 3.1. For the same compound, the “The level of expressed mRNA in the presence of chemical substance/The level of expressed mRNA in the absence of chemical substance” value (yeast gene YGR254W) was 1.2, the “The level of expressed mRNA in the presence of chemical substance/The level of expressed mRNA in the absence of chemical substance” value (yeast gene YHR179W) was 1.6 and the “The level of expressed mRNA in the presence of chemical substance/The level of expressed mRNA in the absence of chemical substance” value (yeast gene YIL160C) was 3.0. The “The level of expressed mRNA in the presence of chemical substance/The level of expressed mRNA in the absence of chemical substance” value (yeast gene YIR031C, cells incubated two hours with the chemical substance) was 0.8, the “The level of expressed mRNA in the presence of chemical substance/The level of expressed mRNA in the absence of chemical substance” value (yeast gene YJL052W) was 1.9 and the “The level of expressed mRNA in the presence of chemical substance/The level of expressed mRNA in the absence of chemical substance” value (yeast gene YJL121C, cells incubated two hours with the chemical substance) was 1.0. The “The level of expressed mRNA in the presence of chemical substance/The level of expressed mRNA in the absence of chemical substance” value (yeast gene YJL166W, cells incubated two hours with the chemical substance) was 4.0 and the “The level of expressed mRNA in the presence of chemical substance/The level of expressed mRNA in the absence of chemical substance” value (yeast gene YJL216C, cells incubated two hours with the chemical substance) was 2.0.
